These results are taken from article PMC4664064 (Chemical research in toxicology, 2015).

One assay deals with T1, P450 1A1 (Homo sapiens, UniProt P04798).
T1 sequence (P04798 1-512): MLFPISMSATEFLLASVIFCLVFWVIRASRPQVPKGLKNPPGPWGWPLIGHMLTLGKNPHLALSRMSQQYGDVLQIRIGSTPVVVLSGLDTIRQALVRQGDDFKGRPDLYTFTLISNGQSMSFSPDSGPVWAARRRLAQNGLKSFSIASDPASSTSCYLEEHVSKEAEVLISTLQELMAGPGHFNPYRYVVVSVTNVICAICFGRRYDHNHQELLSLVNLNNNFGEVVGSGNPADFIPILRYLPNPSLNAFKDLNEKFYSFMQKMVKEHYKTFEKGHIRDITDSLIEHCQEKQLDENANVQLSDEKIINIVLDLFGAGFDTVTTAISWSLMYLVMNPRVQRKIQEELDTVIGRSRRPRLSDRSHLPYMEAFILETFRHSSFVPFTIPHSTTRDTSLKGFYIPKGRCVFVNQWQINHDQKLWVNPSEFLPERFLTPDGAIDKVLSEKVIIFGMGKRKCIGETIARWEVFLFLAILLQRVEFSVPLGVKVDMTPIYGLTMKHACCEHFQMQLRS
T1 sequence (P16435 2-677 partner): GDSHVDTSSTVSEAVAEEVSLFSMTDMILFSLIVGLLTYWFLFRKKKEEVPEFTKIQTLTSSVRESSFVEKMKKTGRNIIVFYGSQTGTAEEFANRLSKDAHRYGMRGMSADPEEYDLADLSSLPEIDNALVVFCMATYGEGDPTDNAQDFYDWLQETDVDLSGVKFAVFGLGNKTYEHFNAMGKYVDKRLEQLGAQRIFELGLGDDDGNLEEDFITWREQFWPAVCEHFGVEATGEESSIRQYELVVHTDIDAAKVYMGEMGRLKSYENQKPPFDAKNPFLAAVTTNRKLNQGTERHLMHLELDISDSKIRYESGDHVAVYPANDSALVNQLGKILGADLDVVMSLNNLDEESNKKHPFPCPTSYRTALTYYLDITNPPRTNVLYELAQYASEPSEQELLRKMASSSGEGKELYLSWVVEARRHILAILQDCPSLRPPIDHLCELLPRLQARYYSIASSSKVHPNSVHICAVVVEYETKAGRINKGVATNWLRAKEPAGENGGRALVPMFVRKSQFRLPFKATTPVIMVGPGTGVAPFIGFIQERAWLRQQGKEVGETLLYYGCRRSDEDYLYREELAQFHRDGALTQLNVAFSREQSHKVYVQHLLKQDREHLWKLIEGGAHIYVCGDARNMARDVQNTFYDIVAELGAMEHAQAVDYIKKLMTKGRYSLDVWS
Kind of assay: EROD assay with recombinant enzyme, compound at […]. Type of assay: biochemical.

The target of another assay is T2, P450 1B1 (Homo sapiens, UniProt Q16678).
T2 sequence (Q16678 1-543): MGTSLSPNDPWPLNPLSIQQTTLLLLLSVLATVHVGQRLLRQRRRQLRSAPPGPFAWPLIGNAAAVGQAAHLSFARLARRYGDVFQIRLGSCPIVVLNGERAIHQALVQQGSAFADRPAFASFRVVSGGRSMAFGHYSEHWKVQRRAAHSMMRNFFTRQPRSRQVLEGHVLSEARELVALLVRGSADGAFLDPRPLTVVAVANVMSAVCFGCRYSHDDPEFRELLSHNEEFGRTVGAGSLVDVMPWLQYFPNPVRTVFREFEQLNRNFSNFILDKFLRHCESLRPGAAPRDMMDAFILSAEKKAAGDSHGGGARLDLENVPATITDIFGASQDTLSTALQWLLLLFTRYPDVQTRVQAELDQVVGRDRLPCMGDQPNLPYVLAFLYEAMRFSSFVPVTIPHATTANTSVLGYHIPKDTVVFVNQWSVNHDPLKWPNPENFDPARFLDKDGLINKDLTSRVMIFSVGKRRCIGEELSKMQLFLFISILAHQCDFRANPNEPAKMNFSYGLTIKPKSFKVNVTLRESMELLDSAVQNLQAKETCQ
T2 sequence (P16435 2-677 partner): T1 sequence (P16435 2-677 partner)
Put plainly: EROD assay with recombinant enzyme, compound at […]. Type of assay: biochemical.

In the case of `C=CC(C)(C)c1cc(/C=C/C(=O)c2ccc(O)cc2)c(OC)cc1O` [LicA, licochalcone A], the “EROD assay with recombinant enzyme, compound at 1 and 10 uM” value is “LicA and LigC led to a significant inhibition of recombinant P450 1A1/1B1 enzyme activity (Figure 7B, C)” on P450 1A1; “LicA and LigC led to a significant inhibition of recombinant P450 1A1/1B1 enzyme activity (Figure 7B, C)” on P450 1B1.

For `O=C(/C=C/c1ccc(O)cc1)c1ccc(O)cc1O` [LigC, isoliquiritigenin], the “EROD assay with recombinant enzyme, compound at 1 and 10 uM” value was “LicA and LigC led to a significant inhibition of recombinant P450 1A1/1B1 enzyme activity (Figure 7B, C)” at P450 1A1; “LicA and LigC led to a significant inhibition of recombinant P450 1A1/1B1 enzyme activity (Figure 7B, C)” on P450 1B1.
